Assay results from patent US6872745B2, “Antipicornaviral compounds and compositions, their pharmaceutical uses, and materials for their synthesis” (Agouron Pharmaceuticals, Inc., priority 2000, dated 2005).

Key:
[1] = Cytotoxicity in mock-infected cells of the antirhinoviral assay (XTT); assay type: cell-based; conditions: human, H1-HeLa cells, table line HRV-14
Method: (§1) In this cell protection assay, the ability of compounds to protect cells against HRV infection was measured by the XTT dye reduction method, which is described in Weislow et al., J. Natl. Cancer Inst. (1989), vol. 81, 577-586. H1-HeLa cells were infected with HRV-14 at a multiplicity of infection (m.o.i.) of 0.13 (virus particles/cell) or mock-infected with medium only. Infected or mock-infected cells were resuspended at 8×10^5 cells per ml, and incubated with appropriate concentrations of the compounds to be tested. Two days later, XTT/PMS was added to test plates and the amount of formazan produced was quantified spectrophotometrically at 450/650 nm. The EC50 value was calculated as the concentration of compound that increased the percentage of formazan production in compound-treated, virus-infected cells to 50% of that produced by compound-free, mock-infected cells. The 50% cytotoxic dose (CC50) was calculated as the concentration of compound that decreased the percentage of formazan produced in compound-treated, mock-infected cells to 50% of that produced by compound-free, mock-infected cells. The therapeutic index (TI) was calculated by dividing the CC50 value by the EC50 value.
(§2) All strains of human rhinovirus (HRV) for use in this assay were purchased from American Type Culture Collection (ATCC), except for HRV serotype-14 (produced from the infectious cDNA clone constructed by Dr. Robert Rueckert, Institute for Molecular Virology, University of Wisconsin, Madison, Wis.). HRV stocks were propagated and viral assays were performed in H1-HeLa cells (ATCC). Cells were grown in minimal essential medium with 10% fetal bovine serum, available from Life Technologies (Gaithersburg, Md.).

HRV-14 = experiment: Antirhinoviral H1-HeLa cell culture assay (XTT cell protection); assay type: cell-based, human rhinovirus; conditions: Rhinovirus B, HRV14, H1-HeLa, HRV-14, H1-HeLa cells
Method: as §1, §2

[2] = target: T1, rhinovirus 3C protease, serotype 14 (Human rhinovirus 14, UniProt P03303); experiment: Inhibition of rhinovirus 3C protease (FRET assay, enzyme start); assay type: biochemical; conditions: HRV-14 3C protease, progress curves, read-out: Kobs/I
T1 construct: Recombinant rhinovirus 3C proteases; made in house
T1 sequence (P03303 1538-1719): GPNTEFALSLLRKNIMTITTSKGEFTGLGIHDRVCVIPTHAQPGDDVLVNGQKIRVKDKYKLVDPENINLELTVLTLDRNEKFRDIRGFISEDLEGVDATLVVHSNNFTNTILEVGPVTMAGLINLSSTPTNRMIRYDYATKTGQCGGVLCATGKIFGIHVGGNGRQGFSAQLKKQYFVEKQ
Method: Stock solutions (50 mM, in DMSO) of various compounds were prepared; dilutions were in the same solvent. Recombinant rhinovirus 3C proteases (see Birch et al., “Purification of recombinant human rhinovirus 14 3C protease expressed in Escherichia coli,” Protein Expr. Pur. (1995), vol. 6(5), 609-618) from serotypes 14, 16, and 2 were prepared by the following standard chromatographic procedures: (1) ion exchange using Q Sepharose Fast Flow from Pharmacia; (2) affinity chromatography using Affi-Gel Blue from Biorad; and (3) sizing using Sephadex G-100 from Pharmacia. Each assay sample contained 2% DMSO, 50 mM tris pH 7.6, 1 mM EDTA, a test compound at the indicated concentration, approximately 1 μM substrate, and 50-100 nM protease. The kobs/I values were obtained from reactions initiated by addition of enzyme rather than substrate. RVP activity was measured in the fluorescence resonance energy transfer assay. The substrate was (N-terminal) DABCYL-(Gly-Arg-Ala-Val-Phe-Gln-Gly-Pro-Val-Gly)-EDANS. In the uncleaved peptide, the EDANS fluorescence was quenched by the proximal DABCYL moiety. When the peptide was cleaved, the quenching was relieved, and activity was measured as an increase in fluorescence signal. The tabulated data in the column designated kobs/[I] were measured from progress curves in enzyme start experiments.

EC50 (HRV-14) [µM] | kinact/KI [2] [M⁻¹ s⁻¹] | Structure (SMILES) | CC50 at 2 days [1] [µM]
– | 1380 | CCOC(=O)/C=C/[C@H](CCC(N)=O)NC(=O)[C@H](Cc1ccccc1)NC(=O)c1ccc(-c2cc(C)no2)[nH]1 [Compound 21, 6-Carbamoyl-4S-(2S-{[5-(3-methyl-isoxazol-5-yl)-1H-pyrrole-2-carbonyl]-amino}-3-phenyl-propionylamino)-hex-2(trans)-enoic acid ethyl ester] | –
0.143 | 125000 | CCOC(=O)/C=C/[C@H](C[C@@H]1CCNC1=O)NC(=O)[C@@H](CC(=O)c1ccc(-c2ccccc2C(F)(F)F)[nH]1)Cc1ccccc1 [Compound 35, 4S-{2R-Benzyl-4-oxo-4-[5-(2-trifluoromethyl-phenyl)-1H-pyrrol-2-yl]-butyrylamino}-5-(2-oxo-pyrrolidin-3S-yl)-pent-2(trans)-enoic acid ethyl ester] | > 10
3.34 | 2500 | CCOC(=O)/C=C/[C@H](C[C@@H]1CCNC1=O)NC(=O)[C@@H](CC(=O)c1ccc[nH]1)Cc1ccccc1 [Compound 30] | > 10
– | 1030 | CCOC(=O)/C=C/[C@H](C[C@@H]1CCNC1=O)NC(=O)CCC(=O)c1ccccc1 [Compound 44, 4S-(4-oxo-4-phenyl-butyrylamino)-5-(2-oxo-pyrrolidin-3S-yl)-pent-2-enoic acid ethyl ester] | –
– | 85 | CCOC(=O)/C=C/[C@H](C[C@@H]1CCNC1=O)NC(=O)CCC(C)=O [Compound 43, 4S-(4-oxo-pentanoylamino)-5-(2-oxo-pyrrolidin-3S-yl)-pent-2-enoic acid ethyl ester] | –
2.01 | 6570 | CCOC(=O)/C=C/[C@H](CCC(N)=O)NC(=O)[C@H](Cc1ccccc1)NC(=O)c1ccc(C(C)CC(F)(F)F)[nH]1 (stereo partly drawn) [Compound 13, 6-Carbamoyl-4S-(3-phenyl-2S-{[5-(3,3,3-trifluoro-1 methyl-propyl)-1H-pyrrole-2-carbonyl]-amino}-propionylamino)-hex-2(trans)-enoic acid ethyl ester] | > 10
3.91 | 5460 | CCOC(=O)/C=C/[C@H](C[C@@H]1CCNC1=O)NC(=O)[C@H](Cc1ccccc1)NC(=O)c1ccc[nH]1 [Compound 24, 5-(2-Oxo-pyrrolidin-3S-yl)-4S-{3-phenyl-2S-[(1H-pyrrole-2-carbonyl)-amino]-propionylamino}-pent-2(trans)-enoic acid ethyl ester] | > 100
– | 42 | CCOC(=O)/C=C/[C@H](C[C@@H]1CCNC1=O)NC(=O)[C@H](Cc1ccc(F)cc1)NC(=O)c1cc2ccccc2[nH]1 [Compound 42, Ethyl-3-{(Indole-2-carboxylic acid)-L-(4-F-Phe)-L-[(S)-Pyrrol-Ala]}-E-Propenoate] | –
– | 629 | CCOC(=O)/C=C/[C@H](C[C@@H]1CCNC1=O)NC(=O)CCC(=O)c1cccc2ccccc12 [Compound 45, 4-S-(4-Naphthalen-1-yl-4-oxo-butyrylamino)-5-(2-oxo-pyrrolidin-3S-yl)-pent-2-enoic acid ethyl ester] | –

The next lines start with the compound.

Structure (SMILES) | EC50 (HRV-14) [µM] | kinact/KI [2] [M⁻¹ s⁻¹] | CC50 at 2 days [1] [µM]
CCOC(=O)/C=C/[C@H](CCC(N)=O)NC(=O)[C@H](Cc1ccccc1)NC(=O)c1ccc(-c2ccccc2Br)[nH]1 [Compound 14, 4S-(2S-{[5-(2-Bromo-phenyl)-1H-pyrrole-2-carbonyl]-amino}-3-phenyl-propionylamino)-6-carbamoyl-hex-2(trans)-enoic acid ethyl ester] | 0.534 | 34600 | > 10
CCOC(=O)/C=C/[C@H](CCC(N)=O)NC(=O)[C@H](Cc1ccccc1)NC(=O)c1ccc(-c2ccccc2OC)[nH]1 [Compound 11, 6-Carbamoyl-4S-(2S-{[5-(2-methoxy-phenyl)-1H-pyrrole-2-carbonyl]-amino}-3-phenyl-propionylamino)-hex-2(trans)-enoic acid ethyl ester] | 0.646 | 5000 | > 10
CCOC(=O)/C=C/[C@H](CCC(N)=O)NC(=O)[C@H](Cc1ccccc1)NC(=O)c1ccc(-c2cccc3ccccc23)[nH]1 [Compound 3] | 0.109 | 30800 | > 10
O=C1OCC/C1=C\[C@H](C[C@@H]1CCNC1=O)NC(=O)[C@H](Cc1ccc(F)cc1)NC(=O)c1ccc(-c2cccc3ccccc23)[nH]1 [Compound 26] | 0.073 | 188000 | > 10
C#CC[C@H](NC(=O)c1ccc(-c2ccccc2C(F)(F)F)[nH]1)C(=O)N[C@H](/C=C/C(=O)OCC)CCC(N)=O [Compound 16, 6-Carbamoyl-4S-(2S-{[5-(2-trifluoromethyl-phenyl)-1H-pyrrole-2-carbonyl]-amino}-pent-4-ynoylamino)-hex-2(trans)-enoic acid ethyl ester] | 1.32 | 7100 | > 10
CCOC(=O)/C=C/[C@H](CCC(N)=O)NC(=O)[C@H](Cc1ccccc1)NC(=O)c1ccc(-c2cc(OC)ccc2OC)[nH]1 [Compound 7, 6-Carbamoyl-4S-(2S-{[5-(2,5-dimethoxy-phenyl)-1H-pyrrole-2-carbonyl]-amino}-3-phenyl-propionylamino)-hex-2-enoic acid ethyl ester] | 0.3 | 5200 | > 10
CCOC(=O)/C=C/[C@H](CCC(N)=O)NC(=O)[C@H](Cc1ccccc1)NC(=O)c1ccc(-c2ccccc2)[nH]1 [Compound 10, 6-Carbamoyl-4S-{3-phenyl-2S-[(5-phenyl-1H-pyrrole-2-carbonyl)-amino]-propionylamino}-hex-2(trans)-enoic acid ethyl ester] | – | 2370 | –
CCOC(=O)/C=C/[C@H](CCC(N)=O)NC(=O)[C@H](Cc1ccccc1)NC(=O)c1ccc(-c2cc(Cl)ccc2OC)[nH]1 [Compound 4, 6-Carbamoyl-4S-(2S-{[5-(5-chloro-2-methoxy-phenyl)-1H-pyrrole-2-carbonyl]amino}-3-phenyl-propionylamino)-hex-2(trans)-enoic acid ethyl ester] | – | 5860 | –
CCOC(=O)/C=C/[C@H](CCC(N)=O)NC(=O)[C@H](Cc1ccccc1)NC(=O)c1ccc(-c2ccccc2C)[nH]1 [Compound 9, 6-Carbamoyl-4S-{3-phenyl-2S-[(5-o-tolyl-1H-pyrrole-2-carbonyl)-amino]-propionylamino}-hex-2(trans)-enoic acid ethyl ester] | – | 12600 | –
O=C1OCC/C1=C\[C@H](C[C@@H]1CCNC1=O)NC(=O)C(CC(=O)c1ccc[nH]1)Cc1ccc(F)cc1 (stereo partly drawn) [Compound 34, 2-(R,S)-(4-Fluorobenzyl)-4-oxo-N-[2-(2-oxo-dihydro-furan-3-ylidine)-1S-(2-oxo-pyrrolidin-3S-ylmethyl)-ethyl]-4-(1H-pyrrol-2-yl)-butyramide] | – | 520 | –
CCOC(=O)/C=C/[C@H](CCC(N)=O)NC(=O)[C@H](Cc1ccccc1)N(C)C(=O)c1ccc(-c2ccccc2C(F)(F)F)[nH]1 [Compound 41, 6-Carbamoyl-4S-(2S {methyl-[5-(2-trifluoromethyl-phenyl)-1H-pyrrole-2-carbonyl]-amino}-3-3-phenyl-propionylamino)-hex-2(trans)-enoic acid ethyl ester] | 0.5 | 10700 | > 10
O=C1OCC/C1=C\[C@H](C[C@@H]1CCNC1=O)NC(=O)C(CC(=O)c1ccc(-c2ccccc2)[nH]1)Cc1ccc(F)cc1 (stereo partly drawn) [Compound 31, 2-(R,S)-(4-Fluorobenzyl)-4-oxo-N-[2-(2-oxo-dihydro-furan-3-ylidine)-1S-(2-oxo-pyrrolidin-3S-ylmethyl)-ethyl]-4-(5-phenyl-1H-pyrrol-2-yl)-butyramide] | – | 900 | –
O=C1OCC/C1=C\[C@H](C[C@@H]1CCNC1=O)NC(=O)[C@H](CC(=O)c1ccc(-c2cccc3ccccc23)[nH]1)Cc1ccc(F)cc1 [Compound 32, 2-(R,S)-(4-Fluorobenzyl)-4-(5-naphthalen-1-yl-1H-pyrrol-2-yl)-4-oxo-N-[2-(2-oxo-dihydro-furan-3-ylidine)-1S-(2-oxo-pyrrolidin-3S-ylmethyl)-ethyl]-butyramide] | – | 8300 | –
